Test results reported in paper PMC6128881, “Novel insight into the reaction of nitro, nitroso and hydroxylamino benzothiazinones and of benzoxacinones with Mycobacterium tuberculosis DprE1” (Scientific Reports, 2018).
Values after ≈ are worked out from the molar mass of the structure shown. Like-named read-outs stand apart in the source and are kept apart here.

Experiments:
M. tuberculosis H37Rv = experiment: Minimal inhibitory concentration, M. tuberculosis H37Rv; assay type: cell-based, Mycobacterium tuberculosis; settings: for MIC Mtb-H37Rv / MIC / Inhibition of Mtb-H37Rv (MIC): n = 3; for MIC: read-out: MIC Mtb-H37Rv; for fold higher Mtb MIC of BOZ relative to BTZ counterpart: 5 vs 9, 10 vs PBTZ169
Method: MIC values for M. tuberculosis H37Rv and M. vaccae […] were determined as described previously[33],[34].

[1] = assay type: physicochemical; settings: pH 7.4
Method: Solubility of compounds was measured by Chemi-Luminescent Nitrogen Detection (CLND)[32]. […] of 10 mM DMSO stock solutions of compounds were diluted to […] with phosphate buffered saline (PBS), pH 7.4, equilibrated for 1 hour at room temperature and filtered through Millipore Multiscreen HTS-PCF filter plates (MSSL BPC) prior to analysis by CLND.

Mtb-DprE1 [2] = biological target: T1, Mtb-DprE1 (Mycobacterium tuberculosis, UniProt P9WJF1); experiment: biochemical; assay type: biochemical; settings: for dependence of kobs on inhibitor concentration: inhibitor 10 nM to 100 µM; for kinact/Ki: second order rate constant of inactivation, 150 nM Mtb-DprE1, 1 mM FPR, up to 100 min; for fold increase in kinact/Ki as compared to 7: relative to 7; for fold lower kinact/Ki of BOZ than the BTZ counterpart: 4 vs 7, 3 vs 6, 5 vs 9
T1 construct: made in house; host or cells: E. coli
T1 sequence (P9WJF1 whole entry): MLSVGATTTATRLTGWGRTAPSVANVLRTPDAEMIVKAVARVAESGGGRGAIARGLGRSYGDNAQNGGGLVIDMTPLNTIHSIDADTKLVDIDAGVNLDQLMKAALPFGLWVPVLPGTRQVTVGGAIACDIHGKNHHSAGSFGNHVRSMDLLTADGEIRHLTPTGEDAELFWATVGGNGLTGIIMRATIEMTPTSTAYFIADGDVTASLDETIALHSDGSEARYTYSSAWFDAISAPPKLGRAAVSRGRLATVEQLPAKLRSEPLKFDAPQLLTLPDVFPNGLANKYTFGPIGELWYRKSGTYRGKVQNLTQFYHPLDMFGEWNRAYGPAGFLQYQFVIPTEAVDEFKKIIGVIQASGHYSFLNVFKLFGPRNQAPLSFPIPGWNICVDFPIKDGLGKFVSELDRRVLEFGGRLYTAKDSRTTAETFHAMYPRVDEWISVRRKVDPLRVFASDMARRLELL

M. vaccae 10670 = experiment: Minimal inhibitory concentration, M. vaccae; assay type: cell-based; settings: n = 1
Mtb-DprE1 [3] = biological target: T1, Mtb-DprE1; experiment: Intact protein mass spectrometry of Mtb-DprE1 after incubation with inhibitor; assay type: binding; settings: for mass increase of Mtb-DprE1 (covalent adduct): incubated in the presence of FPR and FAD, LC-MS; for extent of modification of Mtb-DprE1: 20 μM FAD
M. smegmatis = experiment: MIC against M. smegmatis (literature); assay type: cell-based; settings: MIC ref 4, IC50 ref 9
M. smegmatis DprE1 = test system: M. smegmatis DprE1; parameters: method as in PMID 22956199; settings: read-out: M. smegmatis DprE1 enzymatic IC50; cited from earlier work
[4] = Mycobacterium tuberculosis, H37RV
[5] = IC50, final value of the decrease during the first 100 min of reaction, 100 min of reaction
[6] = IC50, starting value of the decrease during the first 100 min of reaction, early reaction time

Compound | MIC Mtb-H37Rv (M. tuberculosis H37Rv) | MIC (M. tuberculosis H37Rv) [µM] | CLND Solubility [1] [µM] | dependence of kobs on inhibitor concentration (Mtb-DprE1 [2]) | MIC (M. vaccae 10670) [µM] | MIC M. vaccae 10670 (M. vaccae 10670) | kinact/Ki (Mtb-DprE1 [2]) [M⁻¹ s⁻¹] | further results
O=c1nc(N2CCN(CC3CCCCC3)CC2)sc2c([N+](=O)[O-])cc(C(F)(F)F)cc12 [C00010] | 0.00019 mg/L (≈ 0.000416 µM) | 0.00042 (≈ 0.000192 µg/mL) | 32 | – | – | – | – | –
O=c1nc(N2CCOCC2)sc2c([N+](=O)[O-])cc(C(F)(F)F)cc12 [Compound 6, 2-(morpholin-4-yl)-8-nitro-6-(trifluoromethyl)-4H-1,3-benzothiazin-4-one] | – | – | – | hyperbolic dependence | – | – | – | –
C[C@H]1COC2(CCN(c3nc(=O)c4cc(C(F)(F)F)cc([N+](=O)[O-])c4s3)CC2)O1 [C00009] | 0.001 mg/L (≈ 0.00232 µM) | 0.0023 (≈ 0.000992 µg/mL) | 32 | – | 0.001 (≈ 0.000431 µg/mL) | 0.0004 mg/L (≈ 0.000927 µM) | 720 ± 20 | –
O=c1nc(N2CCN(CC3CCCCC3)CC2)oc2c([N+](=O)[O-])cc(C(F)(F)F)cc12 [Compound 10, 2-[4-(cyclohexylmethyl)piperazin-1-yl]-8-nitro-6-(trifluoromethyl)-4H-1,3-benzoxazin-4-one] | – | – | – | hyperbolic dependence | – | – | – | fold higher Mtb MIC of BOZ relative to BTZ counterpart (M. tuberculosis H37Rv): approximately 700 fold; MIC (M. tuberculosis H37Rv; [4]): 0.3 µM (≈ 0.132 µg/mL)
C[C@H]1COC2(CCN(c3nc(=O)c4cc(C(F)(F)F)cc(N=O)c4s3)CC2)O1 [C00014] | – | – | 210 | – | 0.06 (≈ 0.0249 µg/mL) | 0.03 mg/L (≈ 0.0722 µM) | 39 ± 1 | Inhibition of Mtb-H37Rv (MIC) (M. tuberculosis H37Rv; at 0.16 μM): 67% Inhibition at 0.16 μM
O=c1nc(N2CCCCC2)sc2c([N+](=O)[O-])cc(C(F)(F)F)cc12 [Compound 7, 8-Nitro-2-(piperidin-1-yl)-6-(trifluoromethyl)-4H-1,3-benzothiazin-4-one] | low micromolar | – | – | linear dependence | – | low micromolar | – | –
O=c1nc(N2CCCCC2)sc2c([N+](=O)[O-])cc(C(F)(F)F)cc12 [C00002] | 1.2 mg/L (≈ 3.34 µM) | 3.3 (≈ 1.19 µg/mL) | 370 | – | 1.1 (≈ 0.395 µg/mL) | 0.4 mg/L (≈ 1.11 µM) | 39 ± 2 | –
O=c1nc(N2CCOCC2)oc2c([N+](=O)[O-])cc(C(F)(F)F)cc12 [C00007] | 1.4 mg/L (≈ 4.06 µM) | 3.9 (≈ 1.35 µg/mL) | ≥510 | – | 18 (≈ 6.21 µg/mL) | 6.2 mg/L (≈ 18 µM) | 4.2 ± 0.1 | –
O=c1nc(N2CCOCC2)sc2c([N+](=O)[O-])cc(C(F)(F)F)cc12 [C00003] | 2.1 mg/L (≈ 5.81 µM) | 5.9 (≈ 2.13 µg/mL) | ≥450 | – | 8.6 (≈ 3.11 µg/mL) | 3.1 mg/L (≈ 8.58 µM) | 17 ± 2 | –
O=c1nc(N2CCCCC2)oc2c([N+](=O)[O-])cc(C(F)(F)F)cc12 [C00006] | 5.3 mg/L (≈ 15.4 µM) | 16 (≈ 5.49 µg/mL) | ≥510 | – | 4.6 (≈ 1.58 µg/mL) | 1.6 mg/L (≈ 4.66 µM) | 5.6 ± 0.1 | –
O=c1nc(N2CCCCC2)sc2c([N+](=O)[O-])c(Cl)c(C(F)(F)F)cc12 [Compound 11, 7-Chloro-8-nitro-2-(piperidin-1-yl)-6-(trifluoromethyl)-4H-1,3-benzothiazin-4-one] | – | – | – | hyperbolic dependence | – | – | – | mass increase of Mtb-DprE1 (covalent adduct) (Mtb-DprE1 [3]): 378 Da; fold increase in kinact/Ki as compared to 7 (Mtb-DprE1 [2]): 8.7 fold
O=c1nc(N2CCCCC2)sc2c(NO)cc(C(F)(F)F)cc12 [Compound 2] | – | – | – | – | – | – | – | MIC (M. vaccae 10670; Mycolicibacterium vaccae, 10670): 18.1 µM (≈ 6.25 µg/mL); MIC (M. tuberculosis H37Rv; [4]): > 80 µM; mass increase of Mtb-DprE1 species (covalent adduct) (Mtb-DprE1 [3]; 10 µM Mtb-DprE1, 20 µM compound, absence of FPR and resazurin): 340–343 Da; time for covalent modification of the enzyme to reach completion (Mtb-DprE1 [3]; 20 μM compound, 10 µM Mtb-DprE1, no FPR): approximately one hour; extent of modification of Mtb-DprE1 (Mtb-DprE1 [3]; 30 minutes after incubation): partial modification; extent of modification of Mtb-DprE1 (Mtb-DprE1 [3]; 60 minutes after incubation): complete modification; mass increase of Mtb-DprE1 (covalent adduct) (Mtb-DprE1 [3]): 343 Da; IC50 (Mtb-DprE1 [2]; [5]): 0.8 µM; IC50 (Mtb-DprE1 [2]; [6]): 3.5 µM
O=c1nc(N2CCCCC2)oc2c([N+](=O)[O-])cc(C(F)(F)F)cc12 [Compound 4, 8-nitro-2-(piperidin-1-yl)-6-(trifluoromethyl)-4H-1,3-benzoxazin-4-one] | – | – | – | linear dependence | – | – | – | fold lower kinact/Ki of BOZ than the BTZ counterpart (Mtb-DprE1 [2]): 7 fold
O=Nc1cc(C(F)(F)F)cc2c(=O)nc(N3CCCCC3)sc12 [Compound 1, 8-Nitroso-2-(piperidin-1-yl)-6-(trifluoromethyl)-4H-1,3-benzothiazin-4-one] | – | – | – | – | – | – | – | mass increase of Mtb-DprE1 (covalent adduct) (Mtb-DprE1 [3]): 343 Da; IC50 (Mtb-DprE1 [2]; [5]): 3 µM; IC50 (Mtb-DprE1 [2]; [6]): 5 µM
O=c1nc(N2CCOCC2)oc2c([N+](=O)[O-])cc(C(F)(F)F)cc12 [Compound 3, 2-(morpholin-4-yl)-8-nitro-6-(trifluoromethyl)-4H-1,3-benzoxazin-4-one] | – | – | – | linear dependence | – | – | – | fold lower kinact/Ki of BOZ than the BTZ counterpart (Mtb-DprE1 [2]): 4 fold
O=c1nc(N2CCCCC2)sc2c(NO)cc(C(F)(F)F)cc12 [C00013] | – | >80 | 10 | – | 18 (≈ 6.22 µg/mL) | 6.2 mg/L (≈ 18 µM) | – | –
C[C@H]1COC2(CCN(c3nc(=O)c4cc(C(F)(F)F)cc([N+](=O)[O-])c4s3)CC2)O1 [Compound 12, reference compound] | – | – | – | linear dependence | – | – | – | fold by which reported M. smegmatis and M. tuberculosis MIC values are lower than M. smegmatis DprE1 IC50 (M. smegmatis): approximately 1000 fold; change in the mass spectrum of Mtb-DprE1 (Mtb-DprE1 [3]; control experiment in the absence of substrate): no change was observed; IC50 (Mtb-DprE1 [2]; after 10 min of reaction time, read-out: enzymatic DprE1 IC50): ~1.5 µM; IC50 (Mtb-DprE1 [2]; after 100 min of reaction time, read-out: enzymatic DprE1 IC50): ~0.12 µM; IC50 (Mtb-DprE1 [2]; equal to half the concentration of enzyme in the assay (150 nM), read-out: limiting IC50 value in theory had the assay been monitored longer): 0.075 µM; IC50 (M. smegmatis DprE1): 4.5 µM
CC1COC2(CCN(c3nc(=O)c4cc(C(F)(F)F)cc(N=O)c4s3)CC2)O1 (stereo not shown) [Compound 8, 2-{2-Methyl-1,4-dioxa-8-azaspiro[4.5]decan-8-yl}-8-nitroso-6-(trifluoromethyl)-4H-1,3 benzothiazin-4-one] | – | – | – | linear dependence | – | – | – | –
O=c1nc(N2CCN(CC3CCCCC3)CC2)oc2c([N+](=O)[O-])cc(C(F)(F)F)cc12 [C00011] | 0.14 mg/L (≈ 0.318 µM) | 0.31 (≈ 0.137 µg/mL) | 12 | – | < 0.11 | < 0.05 mg/L | 300 ± 40 | –
O=Nc1cc(C(F)(F)F)cc2c(=O)nc(N3CCCCC3)sc12 [C00012] | – | – | 250 | – | 73 (≈ 25.1 µg/mL) | 25 mg/L (≈ 72.8 µM) | – | Inhibition of Mtb-H37Rv (MIC) (M. tuberculosis H37Rv; at 80 μM): 82% Inhibition at 80 μM
CC1CCCC(C)N1c1nc(=O)c2cc(C(F)(F)F)cc([N+](=O)[O-])c2s1 (stereo not shown) [Compound 9, 2-(2,6-Dimethylpiperidin-1-yl)-8-nitro-6-(trifluoromethyl)-4H-1,3-benzothiazin-4-one] | – | – | – | linear dependence | – | – | – | fold increase in kinact/Ki as compared to 7 (Mtb-DprE1 [2]): 6 fold
CC1CCCC(C)N1c1nc(=O)c2cc(C(F)(F)F)cc([N+](=O)[O-])c2o1 (stereo not shown) [Compound 5, 2-(2,6-Dimethylpiperidin-1-yl)-8-nitro-6-(trifluoromethyl)-4H-1,3-benzoxazin-4-one] | – | – | – | linear dependence | – | – | – | fold higher Mtb MIC of BOZ relative to BTZ counterpart (M. tuberculosis H37Rv): 8 fold; fold lower kinact/Ki of BOZ than the BTZ counterpart (Mtb-DprE1 [2]): 31 fold
